Assay results: patent publication US20020111353A1, “Inhibitors of c-Jun N-terminal kinases (JNK) and other protein kinases” (priority 2000, published 2002)
pKi: −log10 of the molar value.

Experiments:
Assay type in all cases: biochemical
activated JNK3 = target: T1, activated JNK3 (Homo sapiens, UniProt P53779); test: JNK3 inhibition, spectrophotometric coupled-enzyme assay; conditions: for pKi: activated JNK3 10 nM, 10 μM ATP, 30° C., read-out: JNK3 (Ki rating); for p38/JNK3: ratio of p38 to JNK3 activity as a measure of selectivity
T1 construct: One such construct encodes amino acid residues Ser40-Glu402 of JNK3α1 and is preceded by Met and Gly residues; Met-Gly (added initiation methionine and glycine, from the NcoI cloning site) (N); made in house; host or cells: E. coli BL21 (DE3)
Excerpt: A BLAST search of the EST database using the published JNK3α1 cDNA as a query identified an EST clone (#632588) that contained the entire coding sequence for human JNK3α1. Polymerase chain reactions (PCR) using pfu polymerase (Strategene) were used to introduce restriction sites into the CDNA for cloning into the pET-15B expression vector at the NcoI and BamHI sites. The protein was expressed in E. coli. Due to the poor solubility of the expressed full-length protein (Met 1-Gln 422), an N-terminally truncated protein starting at Ser residue at position 40 (Ser 40) was produced. This truncation corresponds to Ser 2 of JNK1 and JNK2 proteins, and is preceded by a methionine (initiation) and a glycine residue. The glycine residue was added in order to introduce an NcoI site for cloning into the expression vector. In addition, systematic C-terminal truncations were performed by PCR to identify a construct that give rise to diffraction-quality crystals. One such construct encodes amino acid residues Ser40-Glu402 of JNK3α1 and is preceded by Met and Gly residues.
Five mg of JNK3 was diluted to 0.5 mg/ml in 50 mM HEPES buffer, pH 7.5, containing 100 mM NaCl, 5 mM DTT, 20 mM MgCl2 and 1 mM ATP. GST-MKK7(DD) was added at a molar ratio of 1:2.5 GST-MKK7:JNK3. After incubation for 30 minutes at 25° C., the reaction mixture was concentrated 5-fold by ultrafiltration in a Centriprep-30 (Amicon, Beverly, Mass.), diluted to 10 ml and an additional 1 mM ATP added. This procedure was repeated three times to remove ADP and replenish ATP. The final addition of ATP was 5 mM and the mixture incubated overnight at 4° C.
The activated JNK3/GST-MKK7(DD) reaction mixture was exchanged into 50 mM HEPES buffer, pH 7.5, containing 5 mM DTT and 5% glycerol (w/v) by dialysis or ultrafiltration. The reaction mixture was adjusted to 1.1 M potassium phosphate, pH 7.5, and purified by hydrophobic interaction chromatography (at 25° C.) using a Rainin Hydropore column. […] Activated JNK3 (i.e. doubly phosphorylated JNK3) was stored at −70° C. at 0.25-1 mg/ml.
(§1) Compounds were assayed for the inhibition of JNK3 by a spectrophotometric coupled-enzyme assay. In this assay, a fixed concentration of activated JNK3 (10 nM) was incubated with various concentrations of a potential inhibitor dissolved in DMSO for 10 minutes at 30° C. in a buffer containing 0.1 M HEPES buffer, pH 7.5, containing 10 mM MgCl2, 2.5 mM phosphoenolpyruvate, 200 μM NADH, 30 μg/mL pyruvate kinase, 10 μg/mL lactate dehydrogenase, and 200 μM EGF receptor peptide. The EGF receptor peptide has the sequence […], and is a phosphoryl acceptor in the JNK3-catalyzed kinase reaction. The reaction was initiated by the addition of 10 μM ATP and the assay plate is inserted into the spectrophotometer's assay plate compartment that was maintained at 30° C. The decrease of absorbance at 340 nm was monitored as a function of time. The rate data as a function of inhibitor concentration was fitted to competitive inhibition kinetic model to determine the Ki.

activated p38 = activated p38 (Homo sapiens, UniProt Q16539); test: p38 inhibition assay; conditions: read-out: p38 (Ki rating)
Procedure: Two splice variants of human p38 kinase, CSBP1 and CSBP2, have been identified. […] The polymerase chain reaction product was cloned into the pET-15b vector (Novagen). The baculovirus transfer vector, pVL-(His)6-p38 was constructed by subcloning a XbaI-BamHI fragment of pET15b-(His)6-p38 into the complementary sites in plasmid pVL1392 (Pharmingen).
p38 was activated by combining 0.5 mg/ml p38 with 0.005 mg/ml DD-double mutant MKK6 in Buffer B+10 mM MgCl2, 2 mM ATP, 0.2 mM Na2VO4 for 30 minutes at 20° C. The activation mixture was then loaded onto a 1.0×10 cm MonoQ column (Pharmacia) and eluted with a linear 20 column volume gradient to 1.0 M NaCl in Buffer B. The activated p38 eluted after the ADP and ATP. The activated p38 peak was pooled and dialyzed against buffer B+0.2 mM Na2VO4 to remove the NaCl. The dialyzed protein was adjusted to 1.1M potassium phosphate by addition of a 4.0M stock solution and loaded onto a 1.0×10 cm HIC (Rainin Hydropore) column previously equilibrated in Buffer D (10% glycerol, 20 mM β-glycerophosphate, 2.0 mM DTT) +1.1MK2HPO4. The protein was eluted with a 20 column volume linear gradient to Buffer D+50 mM K2HPO4. The double phosphorylated p38 eluted as the main peak and was pooled for dialysis against Buffer B+0.2 mM Na2VO4 The activated p38 was stored at −70° C.
This assay is carried out in the presence of 10 mM MgCl2 and 100 mM HEPES buffer at pH 7.6. For a typical IC50 determination, a stock solution is prepared containing all of the above components and activated p38 (5 nM). The stock solution is aliquotted into vials. A fixed volume of DMSO or inhibitor in DMSO (final concentration of DMSO in reaction is 5%) is introduced to each vial, mixed and incubated for 15 minutes at room temperature. EGF receptor peptide, […], a phosphoryl acceptor in p38-catalyzed kinase reaction, is added to each vial to a final concentration of 200 μM. The kinase reaction is initiated with ATP (100 μM) and the vials are incubated at 30° C. After 30 minutes, the reactions are quenched with equal volume of 10% trifluoroacetic acid (TFA).
The phosphorylated peptide is quantified by HPLC analysis. Separation of phosphorylated peptide from the unphosphorylated peptide is achieved on a reverse phase column (Deltapak, 5 μm, C18 100D, part no. 011795) with a binary gradient of water and acteonitrile, each containing 0.1% TFA. IC50 (concentration of inhibitor yielding 50% inhibition) is determined by plotting the % activity remaining against inhibitor concentration.
This assay is carried out in the presence of 10 mM MgCl2, 25 mM β-glycerophosphate, 10% glycerol and 100 mM HEPES buffer at pH 7.6. For a typical Ki determination, the Km for ATP in the ATPase activity of activated p38 reaction is determined in the absence of inhibitor and in the presence of two concentrations of inhibitor. Ki is determined from the rate data as a function of inhibitor and ATP concentrations. A stock solution is prepared containing all of the above components and activated p38 (60 nM). The stock solution is aliquotted into vials. A fixed volume of DMSO or inhibitor in DMSO (final concentration of DMSO in reaction is 2.5%) is introduced to each vial, mixed and incubated for 15 minutes at room temperature. The reaction is initiated by adding various concentrations of ATP and then incubated at 30° C. After 30 minutes, the reactions are quenched with 50 μl of EDTA (0.1 M, final concentration), pH 8.0. The product of p38 ATPase activity, ADP, is quantified by HPLC analysis.
Separation of ADP from ATP is achieved on a reversed phase column (Supelcosil, LC-18, 3 μm, part no. 5-8985) using a binary solvent gradient of following composition: Solvent A—0.1 M phosphate buffer containing 8 mM tetrabutylammonium hydrogen sulfate (Sigma Chemical Co., catalogue no. T-7158), Solvent B—Solvent A with 30% methanol.

JNK2 = JNK2 (Homo sapiens, UniProt P45984); test: JNK2 inhibition assay (spectrophotometric coupled-enzyme assay, analogous to JNK3); conditions: read-out: JNK2 (Ki rating)
Procedure: as §1
(§2) The JNK1 and JNK2 assays were performed in an analogous manner.

JNK1 = JNK1 (Homo sapiens, UniProt P45983); test: JNK1 inhibition assay (spectrophotometric coupled-enzyme assay, analogous to JNK3); conditions: read-out: JNK1 (Ki rating)
Procedure: as §1, §2

T1 sequence (P53779 40-402): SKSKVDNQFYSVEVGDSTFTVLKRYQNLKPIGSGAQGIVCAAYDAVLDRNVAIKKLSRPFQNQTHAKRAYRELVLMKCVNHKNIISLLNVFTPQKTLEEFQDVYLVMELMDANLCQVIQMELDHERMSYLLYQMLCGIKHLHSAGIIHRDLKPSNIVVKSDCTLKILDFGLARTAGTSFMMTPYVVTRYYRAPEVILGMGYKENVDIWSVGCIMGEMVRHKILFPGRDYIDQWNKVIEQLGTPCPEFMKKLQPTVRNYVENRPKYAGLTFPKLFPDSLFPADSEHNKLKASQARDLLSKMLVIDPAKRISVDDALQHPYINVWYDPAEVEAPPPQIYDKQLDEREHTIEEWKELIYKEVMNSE
activated p38, sequence (Q16539 whole entry, the tested form may be a part, canonical isoform): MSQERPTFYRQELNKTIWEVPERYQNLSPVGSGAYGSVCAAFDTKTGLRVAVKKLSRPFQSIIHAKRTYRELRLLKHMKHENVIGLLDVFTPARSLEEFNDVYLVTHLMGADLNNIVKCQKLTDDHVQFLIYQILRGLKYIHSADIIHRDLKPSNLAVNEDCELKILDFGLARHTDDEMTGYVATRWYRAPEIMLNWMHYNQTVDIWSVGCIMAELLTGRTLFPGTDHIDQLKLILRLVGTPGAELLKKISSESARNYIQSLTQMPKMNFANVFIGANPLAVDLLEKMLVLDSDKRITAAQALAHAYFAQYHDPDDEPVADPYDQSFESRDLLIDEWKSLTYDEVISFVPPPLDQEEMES
JNK1, sequence (P45983 whole entry, species assumed): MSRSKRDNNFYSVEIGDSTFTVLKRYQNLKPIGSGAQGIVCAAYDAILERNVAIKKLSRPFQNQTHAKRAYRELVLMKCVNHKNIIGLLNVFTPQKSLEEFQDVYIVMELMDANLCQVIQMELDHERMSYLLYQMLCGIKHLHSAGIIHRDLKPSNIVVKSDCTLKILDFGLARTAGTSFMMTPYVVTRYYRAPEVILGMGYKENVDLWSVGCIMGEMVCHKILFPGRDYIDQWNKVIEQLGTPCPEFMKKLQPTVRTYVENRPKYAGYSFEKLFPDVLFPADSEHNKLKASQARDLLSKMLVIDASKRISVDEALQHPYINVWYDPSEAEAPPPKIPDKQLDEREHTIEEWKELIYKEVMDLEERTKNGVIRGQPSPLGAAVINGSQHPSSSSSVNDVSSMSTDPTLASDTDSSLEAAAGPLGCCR
JNK2, sequence (P45984 whole entry, species assumed): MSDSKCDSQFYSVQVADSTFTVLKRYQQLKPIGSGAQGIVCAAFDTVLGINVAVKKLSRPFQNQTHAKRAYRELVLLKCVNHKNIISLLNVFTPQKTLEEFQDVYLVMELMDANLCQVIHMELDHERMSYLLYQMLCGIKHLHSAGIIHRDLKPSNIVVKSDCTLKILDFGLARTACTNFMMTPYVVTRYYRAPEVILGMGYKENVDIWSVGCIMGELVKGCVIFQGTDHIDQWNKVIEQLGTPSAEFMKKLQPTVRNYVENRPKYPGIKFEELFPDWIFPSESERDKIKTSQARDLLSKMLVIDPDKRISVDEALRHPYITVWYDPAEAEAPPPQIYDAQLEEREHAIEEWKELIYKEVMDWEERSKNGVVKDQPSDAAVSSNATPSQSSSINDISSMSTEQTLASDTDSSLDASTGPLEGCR

c1ccc(-n2cc(-c3ccnc(NC4CCCCC4)n3)cn2)cc1 [II-67] was tested, and the pKi (activated JNK3) was over 5.70, the p38/JNK3 (activated JNK3) was over 10 and the pKi (activated p38) was under 5.00. For the same molecule, the pKi (JNK2) was over 5.70 and the pKi (JNK1) was over 5.70.
Cc1c(-c2ccnc(Nc3ccc(Cl)cc3)n2)cnn1-c1ccccc1 [II-101] was tested, and the pKi (activated JNK3) was over 5.70, the p38/JNK3 (activated JNK3) was over 10 and the pKi (activated p38) was under 5.00. It also gave a pKi (JNK2) of over 5.70 and a pKi (JNK1) of over 5.70.
In the case of COc1ccc(-n2cc(-c3ccnc(NC4CCCCC4)n3)cn2)cc1 [II-70], the pKi (activated JNK3) was over 5.70, the p38/JNK3 (activated JNK3) was “≧10” and the pKi (activated p38) was under 5.00. The pKi (JNK2) was 5.00 to 5.70 and the pKi (JNK1) was 5.00 to 5.70.
For c1ccc(Cn2cc(-c3ccnc(NC4CCCCC4)n3)cn2)cc1 [II-65], the pKi (activated JNK3) was over 5.70, the p38/JNK3 (activated JNK3) was over 10 and the pKi (activated p38) was under 5.00. For the same molecule, the pKi (JNK2) was over 5.70 and the pKi (JNK1) was over 5.70.
Work on Fc1ccc(-n2cc(-c3ccnc(NC4CCCCC4)n3)cn2)c(F)c1 [II-72, Cyclohexyl-{4-[l-(2,4-difluoro-phenyl)-1H-pyrazol-4-yl]-pyrimidin-2-yl}-amine] yielded a pKi (activated JNK3) of over 5.70, a p38/JNK3 (activated JNK3) of over 10 and a pKi (activated p38) of under 5.00. The pKi (JNK2) was over 5.70 and the pKi (JNK1) was over 5.70.
Cc1c(-c2ccnc(Nc3ccc([N+](=O)[O-])cc3)n2)cnn1-c1ccccc1 [II-102] showed a pKi (activated JNK3) of over 5.70, a p38/JNK3 (activated JNK3) of over 10 and a pKi (activated p38) of under 5.00. It also gave a pKi (JNK2) of over 5.70 and a pKi (JNK1) of over 5.70.
In the case of Cc1c(-c2ccnc(Nc3ccc(F)cc3)n2)cnn1-c1ccccc1 [II-100], the pKi (activated JNK3) was over 5.70, the p38/JNK3 (activated JNK3) was over 10 and the pKi (activated p38) was under 5.00. The pKi (JNK2) was over 5.70 and the pKi (JNK1) was over 5.70.
Clc1ccc(Cl)c(-n2cc(-c3ccnc(NC4CCCCC4)n3)cn2)c1 [II-71] showed a pKi (activated JNK3) of over 5.70, a p38/JNK3 (activated JNK3) of over 10 and a pKi (activated p38) of under 5.00. It also gave a pKi (JNK2) of over 5.70 and a pKi (JNK1) of over 5.70.
